Test results from patent publication US20240408169A1 (priority 2023, published 2024).
*1 amine or outer side, *2 acyl side, *3 side chain or, on linkers, in order; H or OH if unused. Where a SMILES comes first, the peptide text is derived from it. Bridges are numbered along the chain shown (N, C = ends). [ ]: non-standard residue; d: D form. The star is where a group is joined. NMePhe(2-(4-MorPh),5-Cl) = CN[C@@H](Cc1cc(Cl)ccc1-c1ccc(N2CCOCC2)cc1)C(=O)O; X103 = CN1CCC(Oc2ccc(-c3ccc(Cl)cc3C[C@@H](C(=O)[*:2])N(C)[*:1])cc2)CC1; X98 = CN1CC2(C1)OCc1cc(-c3ccc(Cl)cc3C[C@@H](C(=O)[*:2])N(C)[*:1])ccc12; X69 = CCOC(=O)N1CC=C(c2ccc(Cl)cc2C[C@@H](C(=O)[*:2])N(C)[*:1])CC1; NMePhe(5-Cl,2-O(2-Pym)) = CN[C@@H](Cc1cc(Cl)ccc1Oc1ncccn1)C(=O)O; X54 = CN([C@@H](Cc1cc(F)ccc1-c1cnn(C2CCC2)c1)C(=O)[*:2])[*:1]; X26 = CN([C@@H](Cc1cc(F)ccc1-c1cnn(C2CC2)c1)C(=O)[*:2])[*:1]; NMehhhLys(Me) = CN([C@@H](CCCCCCCN(C)[*:3])C(=O)[*:2])[*:1]; X109 = CN([C@@H](Cc1cc(Cl)ccc1-c1ccncc1)C(=O)[*:2])[*:1]; Oxane2carbonyl(2R-CF3) = O=C([C@@]1(C(F)(F)F)CCCCO1)*; X41 = CN([C@@H](Cc1cc(Cl)cc2c1ccn2C)C(=O)[*:2])[*:1]; Cyclobutanecarbonyl(1-CF3) = O=C(C1(C(F)(F)F)CCC1)*; cBuCO(3,3-F2-1-CF3) = O=C(C1(C(F)(F)F)CC(F)(F)C1)*; Pro(trans-4-F) = O=C(O)[C@@H]1C[C@@H](F)CN1; Pivaloyl(3,3,3-F3) = CC(C)(C(=O)*)C(F)(F)F; Gly(cPr) = N[C@H](C(=O)O)C1CC1; X102 = C[C@]1(C(=O)*)CC1(F)F; X77 = CC(F)(C(=O)*)C(F)(F)F

Tests used:
[1] = target: T1, CyclinA2/CDK2 (Homo sapiens, UniProt P20248); experiment: Fluorescence Polarization (FP) competitive binding assay, Cyclin A2/Cdk2; details: 8 nM Cyclin A2/Cdk2, 2 nM FAM probe; average of 2-3 independent experiments; read-out: Cyclin A FP IC50;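 also: plates equilibrated two hours at room temperature before polarization reading, IC50 fitted from eight-concentration compound titration curves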
T1 construct: purchased CRELUX Protein Services

[2] = target: T2, CyclinB1/CDK1 (Homo sapiens, UniProt P14635); experiment: Fluorescence Polarization (FP) competitive binding assay, Cyclin B1/Cdk1; details: 10 nM Cyclin B1/Cdk1, 2 nM FAM probe; average of 2-3 independent experiments; read-out: Cyclin B FP IC50;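 also: fluorescence polarization read after equilibration at room temperature, with IC50 taken from serially diluted dose-response curves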
T2 construct: purchased Eurofins, discovery 14-450

[3] = target: T3, CyclinE1/CDK2 (Homo sapiens, UniProt P24864); experiment: Fluorescence Polarization (FP) competitive binding assay, Cyclin E1/Cdk2; details: 10 nM Cyclin E1/Cdk2, 2 nM FAM probe; average of 2-3 independent experiments; read-out: Cyclin E FP IC50;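 also: readings taken after two-hour equilibration at room temperature in HEPES buffer with NaCl, DTT, NP-40 and BSA, IC50 fitted from eight-concentration serial dilution series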
T3 construct: purchased Eurofins, discovery 14-475

[4] = test system: WI-38 cells; experiment: MTT proliferation assay, WI-38; type: cell-based; details: 3 days compound exposure, 1:3 serial dilution starting at 10 μM;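 also: Eight- or ten-point dilution series, with exposure length chosen to span about three to four cell doublings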
[5] = test system: NCI-H1048 cells; experiment: MTT proliferation assay, NCI-H1048; type: cell-based; details: 5 days compound exposure, 1:3 serial dilution starting at 10 μM;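 also: Dose-response in 96-well plates over 8 or 10 concentration points, with exposure spanning 3-4 cell doublings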
[6] = test system: OVCAR3 cells; experiment: MTT proliferation assay, OVCAR3; type: cell-based; details: 5 days compound exposure, 1:3 serial dilution starting at 10 μM;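 also: compound given as an 8- or 10-point series, one day after plating, with exposure covering roughly 3-4 cell doublings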

Structure (SMILES)	IC50 [1]	IC50 [2]	IC50 [3]	GI50 [4]	GI50 [5]	GI50 [6]
CC(C)C[C@@H]1NC(=O)[C@@H](N(C)C(=O)[C@@H](NC(=O)[C@@H]2C[C@@H](F)CN2C(=O)C2(C(F)(F)F)CC(F)(F)C2)C2CC2)CCCCCCCN(C)C(=O)[C@H](Cc2cc(Cl)cc3c2ccn3C)N(C)C1=O [Example 393] ({cBuCO(3,3-F2-1-CF3)}-[Pro(trans-4-F)][Gly(cPr)][NMehhhLys(Me)]L[X41]; lactam 3-C)	6.67 µM	0.047 µM	1.69 µM	13.7 µM	1.79 µM	1.31 µM
CC(C)C[C@@H]1NC(=O)[C@@H](N(C)C(=O)[C@@H](NC(=O)[C@@H]2C[C@@H](F)CN2C(=O)C(C)(C)C(F)(F)F)C2CC2)CCCCCCCN(C)C(=O)[C@H](Cc2cc(Cl)ccc2-c2ccc(N3CCOCC3)cc2)N(C)C1=O [Example 335] ({Pivaloyl(3,3,3-F3)}-[Pro(trans-4-F)][Gly(cPr)][NMehhhLys(Me)]L[NMePhe(2-(4-MorPh),5-Cl)]; lactam 3-C)	0.02 µM	0.02 µM	0.16 µM	4.75 µM	0.01 µM	0.01 µM
CC(C)C[C@@H]1NC(=O)[C@@H](N(C)C(=O)[C@@H](NC(=O)[C@@H]2C[C@@H](F)CN2C(=O)C2(C(F)(F)F)CCC2)C2CC2)CCCCCCCN(C)C(=O)[C@H](Cc2cc(Cl)ccc2Oc2ncccn2)N(C)C1=O [Example 159] ({Cyclobutanecarbonyl(1-CF3)}-[Pro(trans-4-F)][Gly(cPr)][NMehhhLys(Me)]L[NMePhe(5-Cl,2-O(2-Pym))]; lactam 3-C)	0.08 µM	0.02 µM	0.2 µM	9.45 µM	0.01 µM	0.02 µM
CCOC(=O)N1CC=C(c2ccc(Cl)cc2C[C@H]2C(=O)N(C)CCCCCCC[C@H](N(C)C(=O)[C@@H](NC(=O)[C@@H]3C[C@@H](F)CN3C(=O)C3(C(F)(F)F)CC(F)(F)C3)C3CC3)C(=O)N[C@@H](CC(C)C)C(=O)N2C)CC1 [Example 145] ({cBuCO(3,3-F2-1-CF3)}-[Pro(trans-4-F)][Gly(cPr)][NMehhhLys(Me)]L[X69]; lactam 3-C)	0.02 µM	0.02 µM	1.3 µM	10.1 µM	0.07 µM	0.08 µM
CC(C)C[C@@H]1NC(=O)[C@@H](N(C)C(=O)[C@@H](NC(=O)[C@@H]2C[C@@H](F)CN2C(=O)[C@@]2(C)CC2(F)F)C2CC2)CCCCCCCN(C)C(=O)[C@H](Cc2cc(Cl)ccc2-c2ccc(N3CCOCC3)cc2)N(C)C1=O [Example 400] (X102-[Pro(trans-4-F)][Gly(cPr)][NMehhhLys(Me)]L[NMePhe(2-(4-MorPh),5-Cl)]; lactam 3-C)	0.02 µM	0.02 µM	0.49 µM	4.61 µM	0.01 µM	0.01 µM
CC(C)C[C@@H]1NC(=O)[C@@H](N(C)C(=O)[C@@H](NC(=O)[C@@H]2C[C@@H](F)CN2C(=O)C2(C(F)(F)F)CCC2)C2CC2)CC=CCCCCN(C)C(=O)[C@H](Cc2cc(Cl)ccc2-c2cncnc2)N(C)C1=O [Example 35]	0.12 µM	0.02 µM	1.69 µM	12.4 µM	0.17 µM	0.35 µM
CC(C)C[C@@H]1NC(=O)[C@@H](N(C)C(=O)[C@@H](NC(=O)[C@@H]2C[C@@H](F)CN2C(=O)C2(C(F)(F)F)CC(F)(F)C2)C2CC2)CC=CCCCCN(C)C(=O)[C@H](Cc2cc(F)ccc2-c2cnn(C3CCC3)c2)N(C)C1=O [Example 88]	0.05 µM	0.02 µM	0.2 µM	7.64 µM	0.03 µM	0.03 µM
CC(C)C[C@@H]1NC(=O)[C@@H](N(C)C(=O)[C@@H](NC(=O)[C@@H]2C[C@@H](F)CN2C(=O)[C@@]2(C(F)(F)F)CCCCO2)C2CC2)CCCCCCCN(C)C(=O)[C@H](Cc2cc(F)ccc2-c2cnn(C3CC3)c2)N(C)C1=O [Example 147] ({Oxane2carbonyl(2R-CF3)}-[Pro(trans-4-F)][Gly(cPr)][NMehhhLys(Me)]L[X26]; lactam 3-C)	0.02 µM	0.02 µM	0.1 µM	1.24 µM	0.01 µM	0.01 µM
CC(C)C[C@@H]1NC(=O)[C@@H](N(C)C(=O)[C@@H](NC(=O)[C@@H]2C[C@@H](F)CN2C(=O)C(C)(F)C(F)(F)F)C2CC2)CCCCCCCN(C)C(=O)[C@H](Cc2cc(Cl)ccc2-c2ccc(N3CCOCC3)cc2)N(C)C1=O (stereo partly drawn) [Example 377] (X77-[Pro(trans-4-F)][Gly(cPr)][NMehhhLys(Me)]L[NMePhe(2-(4-MorPh),5-Cl)]; lactam 3-C)	0.02 µM	0.02 µM	0.34 µM	8.16 µM	0.01 µM	0.01 µM
CC(C)C[C@@H]1NC(=O)[C@@H](N(C)C(=O)[C@@H](NC(=O)[C@@H]2C[C@@H](F)CN2C(=O)C2(C(F)(F)F)CC(F)(F)C2)C2CC2)CCCCCCCN(C)C(=O)[C@H](Cc2cc(Cl)ccc2-c2ccc3c(c2)COC32CN(C)C2)N(C)C1=O [Example 355] ({cBuCO(3,3-F2-1-CF3)}-[Pro(trans-4-F)][Gly(cPr)][NMehhhLys(Me)]L[X98]; lactam 3-C)	0.02 µM	0.02 µM	1.76 µM	2.77 µM	0.01 µM	0.01 µM
CC(C)C[C@@H]1NC(=O)[C@@H](N(C)C(=O)[C@@H](NC(=O)[C@@H]2C[C@@H](F)CN2C(=O)C2(C(F)(F)F)CCC2)C2CC2)CC=CCCCCN(C)C(=O)[C@H](Cc2cc(Cl)cnc2OC(C)C)N(C)C1=O [Example 137]	0.06 µM	0.02 µM	0.13 µM	4.58 µM	0.6 µM	0.76 µM
CC(C)C[C@@H]1NC(=O)[C@@H](N(C)C(=O)[C@@H](NC(=O)[C@@H]2C[C@@H](F)CN2C(=O)C2(C(F)(F)F)CC(F)(F)C2)C2CC2)CCCCCCCN(C)C(=O)[C@H](Cc2cc(F)ccc2-c2cnn(C3CCC3)c2)N(C)C1=O [Example 96] ({cBuCO(3,3-F2-1-CF3)}-[Pro(trans-4-F)][Gly(cPr)][NMehhhLys(Me)]L[X54]; lactam 3-C)	0.02 µM	0.02 µM	0.12 µM	8.92 µM	0.01 µM	0.01 µM
CC(C)C[C@@H]1NC(=O)[C@@H](N(C)C(=O)[C@@H](NC(=O)[C@@H]2C[C@@H](F)CN2C(=O)C2(C(F)(F)F)CC(F)(F)C2)C2CC2)CCCCCCCN(C)C(=O)[C@H](Cc2cc(Cl)ccc2-c2ccc(OC3CCN(C)CC3)cc2)N(C)C1=O [Example 371] ({cBuCO(3,3-F2-1-CF3)}-[Pro(trans-4-F)][Gly(cPr)][NMehhhLys(Me)]L[X103]; lactam 3-C)	0.02 µM	0.02 µM	0.92 µM	1.44 µM	0.01 µM	0.01 µM
CC(C)C[C@@H]1NC(=O)[C@@H](N(C)C(=O)[C@@H](NC(=O)[C@@H]2C[C@@H](F)CN2C(=O)C2(C(F)(F)F)CC(F)(F)C2)C2CC2)CCCCCCCN(C)C(=O)[C@H](Cc2cc(Cl)ccc2-c2ccncc2)N(C)C1=O [Example 192] ({cBuCO(3,3-F2-1-CF3)}-[Pro(trans-4-F)][Gly(cPr)][NMehhhLys(Me)]L[X109]; lactam 3-C)	0.02 µM	0.02 µM	1.14 µM	3.51 µM	0.02 µM	0.02 µM
